From US8628961B2, “Small molecule antagonists of phosphatidylinositol-3,4,5-triphosphate (PIP3) and uses thereof” (Tufts University, priority 2010, dated 2014)

Columns and labels:
PH123 = PH123 (Homo sapiens (Human), UniProt P31749); assay: Lipid overlay assay of PIP3/PH123 binding
[1] = target: PH domain of Akt (His6-Akt123) (Homo sapiens (Human), UniProt P31749); assay: NMR 2D HSQC binding analysis
Description: To further characterize the mode of action of PIT-1, NMR-based analyses of PIT-1 binding to the PH domain of Akt were performed. […] PIT-1 was further titrated to identify residues primarily affected by the small molecule binding. Using published Akt2 HSQC peak assignments (Auguin D et al. (2004) J Biomol NMR 28:137-55), it was observed that the residues Trp22 (W22), Tyr26 (Y26), and Asn54 (N54), located in the PIP3 binding pocket of the Akt PH domain, are primarily affected by PIT-1. Changes in other crosspeak signals were observed only at the 2× access of PIT-1.

U87MG cells [2] = assay: Long-term colony formation; assay type: cell-based, human
[3] = system: PTEN-deficient U87MG cells; assay: Sytox cell death assay, U87MG re-expressing wild-type or R130M mutant PTEN; assay type: cell-based, human; details: 25, 50, 100 μM, 48 hr
Description: After treatment with 25, 50, or 100 μM PIT-1 for 48 hr, cell death was analyzed using Sytox cell death assay.
Based on the critical role of PIP3-dependent […] signaling in the regulation of cell survival, the effect of PIT-1 on the cancer cell viability was tested. Cancer cells were seeded into 96-well plates (white plates for ATP assay; black plates for fluorescent assay; clear plates for MTS assay) at the density of 5-10×10^3 cells per well in 100 μl of the appropriate media. Compounds were added at a series of concentrations and incubated for different times. For the ATP assay, a luminescence-based commercial kit (CellTiter-Glo, Promega, Madison, Wis.) was used. Thirty microliters of cell lysis/ATP detection reagent was added to each well, mixed for 10 min at room temperature, and the luminescence was measured using a Wallac Victor 3 plate reader (Perkin-Elmer, Wellesley, Mass.). […] Twenty microliters of the combined MTS/PMS solution was added into each well, incubated for 4 hr at 37° C., and the absorbance at 490 nm was measured using a Wallac Victor 3 plate reader. For the Sytox cell death assay, measuring loss of plasma membrane integrity, cells were incubated with 1 μM Sytox Green reagent (Molecular Probes, Eugene, Oreg.) for 30 min at 37° C. and the fluorescence intensity was measured using Wallac Victor 3 plate reader with excitation at 485 nm and emission at 545 nm. […]

U87MG cells [4] = assay: Cell death in U87MG cells overexpressing PH domain-deficient constitutively active Akt; assay type: cell-based, human
Description: To further confirm the mode of action of PIT-1 in the cells is directly related to the inhibition of PIP3/Akt PH domain interaction, induction of cell death in cells overexpressing constitutively active Akt lacking PH domain, but containing a membrane-targeting myristoylation signal, was tested. […] This is not unexpected, considering that another PIT-1 target, PDK1, regulates cell survival through both Akt-dependent and Akt-independent pathways.

HUVEC cells = assay: HUVEC migration, wound healing and transwell assays; assay type: cell-based, human
Description: Two models of cell migration were used, a transwell migration model and a wound closure model. Migration of cancer and endothelial cells was evaluated using 24-transwell Boyden chamber (Costar, Bedford, Mass.) with a polystyrene membrane (6.5 mm diameter, 10 μm thickness, and 8 μm pore size). Cells were suspended in serum-free media and seeded in the upper compartment of each well (2×10^4 cells/well) in the presence or absence of different compounds at the indicated concentrations. The lower compartment contained 600 μl of serum-free culture media supplemented with growth factors. After an 8-hr incubation at 37° C., cells were fixed and stained with 0.1% crystal violet. Non-migrating cells on the upper surface of the filter were removed, and the stained cells that migrated to the lower side were photographed using a phase-contrast microscope (Nikon, Japan) in five random fields. The cells were lysed with 10% acetic acid, and colorimetric determination was made at 595 nm using Wallac Victor 3 plate reader.
Cancer or endothelial cells were seeded into fibronectin-coated 96-well plates (2×10^4 cells/well). […]
Second, HUVEC were serum starved and treated with PITs (25, 50 100 μM) or PIT-1 is (100 μM) for 8 hr, followed by bFGF (10 ng/ml) stimulation for 15 min. […] The number of cell ruffles/lamellipodia was counted in five random fields.

HUVEC = assay: Endothelial tube formation assay on Matrigel; assay type: cell-based, human; details: P>0.05
Description: The tube formation assay was performed in 96-well plates. Wells were pre-coated with 70 μl of the Matrigel basement membrane matrix (BD Biosciences) per well for 1 hr at 37° C. HUVEC were suspended in serum-free M199 medium and plated on Matrigel at a density of 2×10^4 cells per well. PIT-1 was added at indicated concentrations (3.125-100 μM). After an 8 hr incubation at 37° C., phase-contrast images of the endothelial tubes were obtained using a Nikon TE2000 microscope, and tube formation was assessed by counting the number of closed tubes in five random fields from each well.

PH domain of Akt (His6-Akt123), sequence (P31749 1-123): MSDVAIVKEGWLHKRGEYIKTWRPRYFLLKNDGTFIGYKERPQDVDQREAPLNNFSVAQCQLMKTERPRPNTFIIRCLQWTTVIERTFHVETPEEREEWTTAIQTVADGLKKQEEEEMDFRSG
PH123, sequence (P31749 1-123): as above

With `O=C(NC(=S)Nc1cc([N+](=O)[O-])cc(Cl)c1O)c1ccccc1` [PIT-1] the “inhibitory effect on PIP3/PH123 binding” value (PH123) was “concentration-dependent inhibitory effect”, the “changes in 2D HSQC 1H-15N correlation spectrum of His6-Akt123” value [1] was “induces significant changes” and the “long-term colony formation by U87MG cells” value (U87MG cells [2]) was “suppressed long-term colony formation”. For the same molecule, the “toxicity in U87MG lacking PTEN activity versus wild-type PTEN” value [3] was “more pronounced in PTEN-deficient U87MG cells lacking PTEN activity”, the “effect of overexpressed PH domain-deficient Akt on killing of U87MG cells” value (U87MG cells [4]) was “significantly protected U87MG cells from PIT-1 killing” and the “migration of HUVEC cells” value (HUVEC cells) was “efficiently blocked migration of HUVEC cells”. For the same molecule, the “cell viability under tube formation conditions” value (HUVEC) was “No loss of cell viability”.
